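Protocol summary: plate cells (96-well), add compound at 5 concentrations, incubate 48 h, interpolate endpoints linearly. TGI marks complete inhibition of growth.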
Columns and labels:
Assay in all cases: DTP human tumour cell line panel, 48 h
786-0 renal = system: 786-0 renal
HCT-15 colon = system: HCT-15 colon
MOLT-4 leukemia = system: MOLT-4 leukemia
NCI-H460 lung = system: NCI-H460 lung
NCI-H522 lung = system: NCI-H522 lung
OVCAR-4 ovarian = system: OVCAR-4 ovarian
SF-268 CNS = system: SF-268 CNS
SN12C renal = system: SN12C renal
TK-10 renal = system: TK-10 renal
SR leukemia = system: SR leukemia
T-47D breast = system: T-47D breast

SMILES	TGI (786-0 renal) [µM]	TGI (HCT-15 colon) [µM]	TGI (MOLT-4 leukemia) [µM]	TGI (NCI-H460 lung) [µM]	TGI (NCI-H522 lung) [µM]	TGI (OVCAR-4 ovarian) [µM]	TGI (SF-268 CNS) [µM]	TGI (SN12C renal) [µM]	TGI (TK-10 renal) [µM]	TGI (SR leukemia) [µM]	TGI (T-47D breast) [µM]
COC[n+]1cc2cc(OC)c(OC)cc2c2ccc3cc(OC)c(OC)cc3c21	> 100	> 100	> 100	> 100	> 100	> 100	> 100	> 100	> 100	–	–
NC1=NC(OCC2(CO)CCC2)C=C(NCC2(CO)CCC2)N1 (stereo not drawn)	> 100	> 100	> 100	> 100	> 100	> 100	> 100	> 100	–	> 100	> 100
S=C(Nc1cccc(Cl)c1)Nc1ccccn1	> 100	> 100	> 100	> 100	–	> 100	> 100	> 100	> 100	> 100	> 100
CC1[C@@H](OCc2ccccc2)COC(=O)N1Cc1ccccc1 (stereo partly drawn)	> 100	> 100	> 100	–	–	> 100	> 100	> 100	> 100	> 100	–
CN(C)CCNc1ccc2c(=O)n(CCN(C)C)c(=O)n3c4ccc(N)cc4c(=O)c1c23	1.18	1.08	0.161	0.56	0.0832	0.996	1.25	0.306	6.13	–	4.64
CC1C[C@]2(C)C(=S)Nc3ccccc3[C@@H]2Nc2ccccc21 (stereo partly drawn)	34.1	50.8	56.1	29.6	–	38.6	16.4	37.5	39.5	> 100	41
O=c1cc(-c2cccc(OC(F)(F)F)c2)[nH]c2cc3c(cc12)OCO3	0.75	2.66	> 100	1.1	> 100	–	> 100	> 100	> 100	–	> 100
CC1(O)/C(=N/O)CC2CC1C2(C)C (stereo not drawn)	> 100	> 100	> 100	> 100	> 100	> 100	> 100	> 100	> 100	–	> 100
CCN(CC)Cc1cc(Nc2c3ccccc3nc3c2[nH]c2ccccc23)ccc1O	2.8	3.25	> 100	2.71	2.33	3.32	–	6.22	8.61	1.01	–
COC(=O)c1c(C(=O)OC)c2cc(C(=O)c3ccccc3)ccn2c1Cl	> 100	> 100	51.5	> 100	50.8	> 100	> 100	> 100	> 100	40.5	–
COc1ccc(C2C(Cl)C(=O)N2NC(=O)Cc2ccccc2)cc1 (stereo not drawn)	> 100	> 100	> 100	> 100	> 100	> 100	> 100	> 100	> 100	> 100	–
CC(=O)Nc1ccc(C2[C@H]3C(=O)N(c4ccc(Cc5ccc(N6C(=O)[C@@H]7ON(c8ccccc8)C(c8ccc(NC(C)=O)cc8)[C@@H]7C6=O)cc5)cc4)C(=O)[C@H]3ON2c2ccccc2)cc1 (stereo partly drawn)	> 100	> 100	> 100	> 100	> 100	> 100	> 100	> 100	> 100	> 100	–
CC(C)(C)[C@H]1CO[C@]2(C)[C@@H]3C[C@@H]3C(=O)N12	> 100	> 100	–	> 100	> 100	> 100	> 100	> 100	> 100	> 100	–
CC1=NN(C(=O)Cc2ccccc2)C(=O)/C1=C\C=C\c1ccccc1	> 100	> 100	> 100	–	> 100	> 100	> 100	> 100	> 100	> 100	–
CCOP(=O)(OCC)/C(C#N)=C/c1ccco1	> 100	> 100	> 100	> 100	> 100	> 100	> 100	> 100	> 100	> 100	–
CNC(=O)c1n[nH][nH]c1=O	> 100	> 100	> 100	–	> 100	–	> 100	> 100	–	> 100	> 100
COC1OC(CO)C(O)C(OC(=O)c2cc(O)c(O)c(O)c2)C1OC(=O)c1cc(O)c(O)c(O)c1 (stereo not drawn)	> 100	> 100	> 100	> 100	> 100	90.4	> 100	> 100	> 100	> 100	–
Cc1ccc(S(=O)(=O)N2CCCCN(S(=O)(=O)c3ccc(C)cc3)Cc3ccccc3OCCOCCOc3c4cccc3Cc3cccc5c3OCCOCCOc3ccccc3CN(S(=O)(=O)c3ccc(C)cc3)CCCN(S(=O)(=O)c3ccc(C)cc3)Cc3ccccc3OCCOCCOc3c(cccc3C4)Cc3cccc(c3OCCOCCOc3ccccc3C2)C5)cc1	> 100	> 100	> 100	> 100	> 100	> 100	> 100	> 100	> 100	–	> 100
Cc1cc(C)nc(Nc2nc3ccc([N+](=O)[O-])cc3[nH]2)n1	> 100	> 100	> 100	> 100	> 100	> 100	> 100	> 100	> 100	> 100	–
NC1CC(=O)c2cc(Br)sc21 (stereo not drawn)	> 100	> 100	> 100	> 100	–	–	> 100	> 100	> 100	> 100	> 100
CC(C)CCC[C@@H](C)C1CCC2[C@@H]3CCC4CC(CCC=C(c5cc(Cl)c(OC(=O)c6ccccc6)c(C(=O)O)c5)c5cc(Cl)c(OC(=O)c6ccccc6)c(C(=O)O)c5)CC[C@]4(C)C3CC[C@@]21C (stereo partly drawn)	75.2	> 100	> 100	> 100	> 100	> 100	–	> 100	> 100	–	–

Reference: PubChem BioAssay (NCI)
